Results taken from patent US12522601B2, “1,3,4-oxadiazole derivative compounds as histone deacetylase 6 inhibitor, and the pharmaceutical composition comprising the same” (CHONG KUN DANG PHARMACEUTICAL CORP., priority 2020, dated 2026).

Experiments:
[1] = biological target: T1, human recombinant HDAC6 (Homo sapiens, UniProt Q9UBN7); assay: In vitro HDAC enzyme activity inhibition assay, HDAC6 (HDAC Fluorimetric Drug Discovery Kit); format: biochemical; conditions: for HDAC6 Selectivity (fold): HDAC6 versus HDAC1; for IC50: human recombinant HDAC6, same protocol as the HDAC1 test
T1 construct: purchased Calbiochem Inc. 382180
T1 sequence (Q9UBN7 1-1215): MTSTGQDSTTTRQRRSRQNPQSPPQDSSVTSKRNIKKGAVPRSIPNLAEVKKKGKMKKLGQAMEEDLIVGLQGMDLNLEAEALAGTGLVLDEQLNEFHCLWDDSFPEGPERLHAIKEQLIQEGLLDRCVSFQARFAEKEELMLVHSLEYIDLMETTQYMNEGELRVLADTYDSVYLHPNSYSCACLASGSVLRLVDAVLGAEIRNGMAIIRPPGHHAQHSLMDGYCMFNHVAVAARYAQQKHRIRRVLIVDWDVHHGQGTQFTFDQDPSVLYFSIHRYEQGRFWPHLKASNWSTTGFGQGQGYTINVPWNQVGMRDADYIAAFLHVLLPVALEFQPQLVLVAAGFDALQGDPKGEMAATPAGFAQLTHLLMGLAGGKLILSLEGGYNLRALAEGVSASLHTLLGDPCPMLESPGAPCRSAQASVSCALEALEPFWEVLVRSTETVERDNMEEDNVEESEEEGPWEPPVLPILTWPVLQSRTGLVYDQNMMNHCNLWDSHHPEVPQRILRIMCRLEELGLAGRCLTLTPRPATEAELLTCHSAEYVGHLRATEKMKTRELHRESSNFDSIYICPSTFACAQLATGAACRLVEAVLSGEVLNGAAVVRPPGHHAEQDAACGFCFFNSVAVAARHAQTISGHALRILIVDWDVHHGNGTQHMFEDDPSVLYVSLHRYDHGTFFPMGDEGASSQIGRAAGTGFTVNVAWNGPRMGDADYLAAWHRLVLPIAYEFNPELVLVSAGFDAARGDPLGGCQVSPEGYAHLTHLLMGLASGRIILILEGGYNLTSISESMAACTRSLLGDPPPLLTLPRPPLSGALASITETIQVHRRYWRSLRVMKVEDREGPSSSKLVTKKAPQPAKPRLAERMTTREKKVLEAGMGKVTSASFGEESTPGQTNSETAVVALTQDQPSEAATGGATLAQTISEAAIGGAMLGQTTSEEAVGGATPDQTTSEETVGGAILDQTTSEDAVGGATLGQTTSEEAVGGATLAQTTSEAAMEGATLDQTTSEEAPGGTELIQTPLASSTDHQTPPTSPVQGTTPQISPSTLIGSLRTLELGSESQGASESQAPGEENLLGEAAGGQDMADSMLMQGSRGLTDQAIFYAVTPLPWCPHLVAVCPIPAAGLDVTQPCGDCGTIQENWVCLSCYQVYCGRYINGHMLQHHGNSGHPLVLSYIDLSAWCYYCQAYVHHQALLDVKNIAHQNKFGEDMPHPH
In short: (§1)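 Both HDAC1 and HDAC6 (human recombinant, 0.3 μg) tested identically: 10 μM fluorogenic Fluor de Lys-SIRT1 substrate, reaction 60 min at 30° C, developer added for 30 min. IC50 calculated from Ex 360/Em 460 signal over 5-fold serial dilutions.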

[2] = biological target: T2, human recombinant HDAC1 (Homo sapiens, UniProt Q13547); assay: In vitro HDAC enzyme activity inhibition assay, HDAC1 (HDAC Fluorimetric Drug Discovery Kit); format: biochemical; conditions: human recombinant HDAC1, Fluor de Lys-SIRT1 substrate 10 μM, 30° C. for 60 minutes
T2 construct: purchased Enzo Life Sciences, Inc. BML-SE456
T2 sequence (Q13547 whole entry): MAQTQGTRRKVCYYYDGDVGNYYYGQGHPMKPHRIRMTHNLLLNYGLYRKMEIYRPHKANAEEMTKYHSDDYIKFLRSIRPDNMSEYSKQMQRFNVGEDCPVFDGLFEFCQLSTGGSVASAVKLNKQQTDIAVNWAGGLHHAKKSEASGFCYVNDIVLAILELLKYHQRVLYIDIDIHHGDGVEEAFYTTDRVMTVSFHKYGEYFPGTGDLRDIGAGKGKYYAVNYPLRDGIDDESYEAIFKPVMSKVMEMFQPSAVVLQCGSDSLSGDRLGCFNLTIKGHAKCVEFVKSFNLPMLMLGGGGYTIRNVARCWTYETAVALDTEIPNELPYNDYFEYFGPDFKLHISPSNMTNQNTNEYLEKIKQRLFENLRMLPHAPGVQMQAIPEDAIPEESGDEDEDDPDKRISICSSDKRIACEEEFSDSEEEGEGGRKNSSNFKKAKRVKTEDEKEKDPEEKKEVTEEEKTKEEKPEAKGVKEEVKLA
In short: as §1

HDAC6 Selectivity (fold) [1] | IC50 [1] | IC50 [2] | Compound
147 fold | 341 nM | > 50000 nM | O=C(CO)N1CCC(C(=O)N(Cc2cn3ccc(-c4nnc(C(F)F)o4)cc3n2)c2ccccc2)CC1 [Compound 4124, N-((7-(5-(difluoromethyl)-1,3,4-oxadiazol-2-yl)imidazo[1,2-a]pyridin-2-yl)methyl)-1-(2-hydroxyacetyl)-N-phenylpiperidine-4-carboxamide]
234 fold | 214 nM | > 50000 nM | O=C(C1CCC1)N1CCC(C(=O)N(Cc2cn3ccc(-c4nnc(C(F)F)o4)cc3n2)c2cccc(F)c2)CC1 [Compound 4150, 1-(cyclobutanecarbonyl)-N-((7-(5-(difluoromethyl)-1,3,4-oxadiazol-2-yl)imidazo[1,2-a]pyridine-2-yl)methyl)-N-(3-fluorophenyl)piperidine-4-carboxamide]
159 fold | 315 nM | > 50000 nM | CS(=O)(=O)N1CCC(C(=O)N(Cc2cn3ccc(-c4nnc(C(F)F)o4)cc3n2)c2ccccc2)CC1 [Compound 4128, N-((7-(5-(difluoromethyl)-1,3,4-oxadiazol-2-yl)imidazo[1,2-a]pyridin-2-yl)methyl)-1-(methylsulfonyl)-N-phenylpiperidine-4-carboxamide]
109 fold | 457 nM | > 50000 nM | CC(=O)c1ccc(Cc2cn3ccc(-c4nnc(C(F)F)o4)cc3n2)cc1 [Compound 3592, 1-(4-((7-(5-(difluoromethyl)-1,3,4-oxadiazol-2-yl)imidazo[1,2-a]pyridin-2-yl)methyl)phenyl)ethan-1-one]
403 fold | 124 nM | > 50000 nM | CC(C)N1CCC(C(=O)N(Cc2cn3ccc(-c4nnc(C(F)F)o4)cc3n2)c2cccc(F)c2)CC1 [Compound 4139, N-((7-(5-(difluoromethyl)-1,3,4-oxadiazol-2-yl)imidazo[1,2-a]pyridin-2-yl)methyl)-N-(3-fluorophenyl)-1-isopropylpiperidine-4-carboxamide]
185 fold | 270 nM | > 50000 nM | O=C(C1CCC1)N1CCN(C(=O)N(Cc2cn3ccc(-c4nnc(C(F)F)o4)cc3n2)c2cccc(F)c2)CC1 [Compound 4095, 4-(cyclobutanecarbonyl)-N-((7-(5-(difluoromethyl)-1,3,4-oxadiazol-2-yl)imidazo[1,2-a]pyridine-2-yl)methyl)-N-(3-fluorophenyl)piperazine-1-carboxamide]
326 fold | 153 nM | > 50000 nM | O=C(N1CCN(C2CC3(COC3)C2)CC1)N(Cc1cn2ccc(-c3nnc(C(F)F)o3)cc2n1)c1cccc(F)c1 [Compound 4621]
131 fold | 381 nM | > 50000 nM | CN(C)C(=O)N1CC(C(=O)N(Cc2cn3ccc(-c4nnc(C(F)F)o4)cc3n2)c2ccccc2)C1 [Compound 4175, N3-((7-(5-(difluoromethyl)-1,3,4-oxadiazol-2-yl)imidazo[1,2-a]pyridin-2-yl)methyl)-N1,N1-dimethyl-N3-phenylazetidine-1,3-dicarboxamide]
141 fold | 355 nM | > 50000 nM | O=C(C1COC1)N1CC(C(=O)N(Cc2cn3ccc(-c4nnc(C(F)F)o4)cc3n2)c2ccccc2)C1 [Compound 4171, N-((7-(5-(difluoromethyl)-1,3,4-oxadiazol-2-yl)imidazo[1,2-a]pyridin-2-yl)methyl)-1-(oxetan-3-carbonyl)-N-phenylazetidine-3-carboxamide]
128 fold | 391 nM | > 50000 nM | CS(=O)(=O)c1ccc(NCc2cn3ccc(-c4nnc(C(F)F)o4)cc3n2)cc1 [Compound 3674, N-((7-(5-(difluoromethyl)-1,3,4-oxadiazol-2-yl)imidazo[1,2-a]pyridin-2-yl)methyl)-4-(methylsulfonyl)aniline]
271 fold | 185 nM | > 50000 nM | CCC(=O)N1CC(C(=O)N(Cc2cn3ccc(-c4nnc(C(F)F)o4)cc3n2)c2cccc(F)c2)C1 [Compound 4198]
361 fold | 138 nM | > 50000 nM | O=C(C1CN(c2ccccn2)C1)N(Cc1cn2ccc(-c3nnc(C(F)F)o3)cc2n1)c1cccc(F)c1 [Compound 4206, N-((7-(5-(difluoromethyl)-1,3,4-oxadiazol-2-yl)imidazo[1,2-a]pyridin-2-yl)methyl)-N-(3-fluorophenyl)-1-(pyridin-2-yl) azetidine-3-carboxamide]
237 fold | 211 nM | > 50000 nM | FC(F)c1nnc(-c2ccn3cc(COc4ccccc4)nc3c2)o1 [Compound 3719, 2-(difluoromethyl)-5-(2-(phenoxymethyl)imidazo[1,2-a]pyridin-7-yl)-1,3,4-oxadiazole]
341 fold | 147 nM | > 50000 nM | Cc1cccc(NCc2cn3ccc(-c4nnc(C(F)F)o4)cc3n2)c1 [Compound 3679, N-((7-(5-(difluoromethyl)-1,3,4-oxadiazol-2-yl)imidazo[1,2-a]pyridin-2-yl)methyl)-3-methylaniline]
282 fold | 177 nM | > 50000 nM | CN(Cc1cn2ccc(-c3nnc(C(F)F)o3)cc2n1)c1ccccc1 [Compound 3725, N-((7-(5-(difluoromethyl)-1,3,4-oxadiazol-2-yl)imidazo[1,2-a]pyridin-2-yl)methyl)-N-methylaniline]
298 fold | 168 nM | > 50000 nM | O=C(C1CN(c2ncccn2)C1)N(Cc1cn2ccc(-c3nnc(C(F)F)o3)cc2n1)c1cccc(F)c1 [Compound 4207, N-((7-(5-(difluoromethyl)-1,3,4-oxadiazol-2-yl)imidazo[1,2-a]pyridin-2-yl)methyl)-N-(3-fluorophenyl)-1-(pyrimidin-2-yl) azetidine-3-carboxamide]
